In ChEMBL document CHEMBL1152468, “Fitness cost and impaired survival in penicillin-resistant Streptococcus gordonii isolates selected in the laboratory” (2008):
≈ marks a conversion by molar mass, not a printed value. Calls of active or inactive are those of the source. The rule behind the calls is not given here.

Assays:
Streptococcus gordonii [1] = test: Antimicrobial activity against wild type Streptococcus gordonii assessed as logarithmic reduction in viability at stationary phase of growth after 70 hrs; assay type: functional
Streptococcus gordonii [2] = test: Antimicrobial activity against penicillin-resistant Streptococcus gordonii PR1_2 mutant assessed as logarithmic reduction in viability at stationary phase of growth after 70 hrs; assay type: functional
Streptococcus gordonii [3] = test: Antimicrobial activity against penicillin-resistant Streptococcus gordonii PR1_2evolved mutant co-cultured with wild type Streptococcus gordoni assessed as loss of viability at stationary phase of growth at 0.5 ug/mL after 15 hrs; assay type: functional, organism-based
Streptococcus gordonii [4] = test: Ratio of generation time for wild type Streptococcus gordonii to generation time for penicillin-resistant Streptococcus gordonii PR1_2 mutant at mid-logarithmic phase of growth; assay type: functional
Streptococcus gordonii [5] = test: Antimicrobial activity against penicillin-resistant Streptococcus gordonii PR1_2 mutant assessed as generation time at mid-logarithmic phase of growth; assay type: functional
Streptococcus gordonii [6] = test: Antimicrobial activity against penicillin-resistant Streptococcus gordonii PR1_2evolved mutant co-cultured with wild type Streptococcus gordoni assessed as loss of viability at stationary phase of growth at 0.5 ug/mL after 70 hrs relative to wild type; assay type: functional, organism-based
Streptococcus gordonii [7] = test: Antimicrobial activity against penicillin-resistant Streptococcus gordonii PR1_2evolved mutant assessed as generation time at mid-logarithmic phase of growth; assay type: functional
Streptococcus gordonii [8] = test: Ratio of generation time for wild type Streptococcus gordonii to generation time for penicillin-resistant Streptococcus gordonii PR1_2evolved mutant at mid-logarithmic phase of growth; assay type: functional
Streptococcus gordonii [9] = test: Antimicrobial activity against wild type Streptococcus gordonii; assay type: functional
Streptococcus gordonii [10] = test: Antimicrobial activity against wild type Streptococcus gordonii assessed as generation time at mid-logarithmic phase of growth; assay type: functional
Streptococcus gordonii [11] = test: Antimicrobial activity against penicillin-resistant Streptococcus gordonii PR1_2 mutant; assay type: functional

In the case of CC1(C)S[C@@H]2[C@H](NC(=O)Cc3ccccc3)C(=O)N2[C@H]1C(=O)O [PENICILLIN G], the Activity (Streptococcus gordonii [1]) is reported as 2 log10CFU/ml, the Activity (Streptococcus gordonii [2]) is reported as >4 log10CFU/ml and the Activity (Streptococcus gordonii [3]) is reported as “Active”. The Ratio (Streptococcus gordonii [4]) was 0.8, the Activity (Streptococcus gordonii [5]) was 60.6 min and the Activity (Streptococcus gordonii [6]) was “Active”. The Activity (Streptococcus gordonii [7]) was 45 min, the Ratio (Streptococcus gordonii [8]) was 1.06 and the MIC (Streptococcus gordonii [9]) was 0.008 µg/mL (≈ 0.0239 µM). For the same compound, the Activity (Streptococcus gordonii [10]) was 48.4 min and the MIC (Streptococcus gordonii [11]) was 2 µg/mL (≈ 5.98 µM).
